Where a SMILES comes first, the peptide text is derived from it. Bridges are numbered along the chain shown (N, C = ends). [ ]: non-standard residue; d: D form. The star is where a group is joined. hPhe(3-Cl-4-CF3) = N[C@@H](CCc1ccc(C(F)(F)F)c(Cl)c1)C(=O)O; NPrPhe(4-CF3) = CCCN[C@@H](Cc1ccc(C(F)(F)F)cc1)C(=O)O; NMeGly(cPent) = CN[C@H](C(=O)O)C1CCCC1; Pro(4,4-F2) = O=C(O)[C@@H]1CC(F)(F)CN1; Pro(4,4-Me2) = CC1(C)CN[C@H](C(=O)O)C1; Hyp = O=C(O)[C@@H]1C[C@@H](O)CN1; NMeD = CN[C@@H](CC(=O)O)C(=O)O; NMeL = CN[C@@H](CC(C)C)C(=O)O; Morpholide = C1CN(*)CCO1; NMeA = CN[C@@H](C)C(=O)O; Ac5c = NC1(C(=O)O)CCCC1; Aze = O=C(O)[C@@H]1CCN1; Ac4c = NC1(C(=O)O)CCC1; Sar = CNCC(=O)O
What was measured:
[1] = target: GDP-bound NRAS wild-type protein (Homo sapiens, UniProt P01111); test: Binding to NRAS by surface plasmon resonance (SPR), Single Cycle Kinetics; conditions: KD ratio NRAS/KRAS, SPR
[2] = target: GDP-bound HRAS wild-type protein (Homo sapiens, UniProt P01112); test: Binding to HRAS by surface plasmon resonance (SPR), Single Cycle Kinetics; conditions: KD ratio HRAS/KRAS, SPR
Chain of GDP-bound HRAS wild-type protein (P01112 whole entry): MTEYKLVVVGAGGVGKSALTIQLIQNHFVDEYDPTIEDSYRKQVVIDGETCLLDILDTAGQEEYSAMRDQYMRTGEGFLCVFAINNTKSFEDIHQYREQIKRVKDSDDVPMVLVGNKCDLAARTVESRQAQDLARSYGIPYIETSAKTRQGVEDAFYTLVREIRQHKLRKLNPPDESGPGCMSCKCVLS

Chain of GDP-bound NRAS wild-type protein (P01111 whole entry): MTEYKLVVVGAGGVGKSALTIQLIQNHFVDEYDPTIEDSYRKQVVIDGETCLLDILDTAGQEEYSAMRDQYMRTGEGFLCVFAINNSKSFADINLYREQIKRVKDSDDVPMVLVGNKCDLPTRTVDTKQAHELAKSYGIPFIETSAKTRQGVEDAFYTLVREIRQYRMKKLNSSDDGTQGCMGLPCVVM

Row | SMILES | NRAS/KRAS (ratio of KD value with respect to GDP-bound NRAS wild-type protein to KD value with respect to KRAS) [1] | HRAS/KRAS (ratio of KD value with respect to GDP-bound HRAS wild-type protein to KD value with respect to KRAS) [2]
1 | CCCN1C(=O)CN(C)C(=O)[C@@H]2CCN2C(=O)[C@H]([C@@H](C)CC)NC(=O)[C@H](CC(C)C)N(C)C(=O)C[C@@H](C(=O)N(C)C)N(C)C(=O)[C@H](C2CCCC2)N(C)C(=O)C2(CCCC2)NC(=O)[C@@H]2C[C@@H](OCC)CN2C(=O)[C@H](CCc2ccc(C(F)(F)F)c(Cl)c2)NC(=O)CN(C)C(=O)[C@@H]1Cc1ccc(C(F)(F)F)cc1 [PP0433] ([NMeL]I[Aze][Sar][NPrPhe(4-CF3)][Sar][hPhe(3-Cl-4-CF3)][Hyp](Et)[Ac5c][NMeGly(cPent)][NMeD]-NMe2; lactam N-11) | B (a compound having 3 or more and less than 10 is denoted as B) | B (a compound having 3 or more and less than 10 is denoted as B)
2 | CCCN1C(=O)[C@@H]2CCN2C(=O)[C@H](C)N(C)C(=O)[C@H]([C@@H](C)CC)NC(=O)[C@H](CC(C)C)N(C)C(=O)C[C@@H](C(=O)N(C)C)N(C)C(=O)[C@H](C2CCCC2)N(C)C(=O)C2(CCC2)NC(=O)[C@@H]2CCCN2C(=O)[C@H](CCc2ccc(C(F)(F)F)c(Cl)c2)NC(=O)CN(C)C(=O)[C@@H]1Cc1ccc(C(F)(F)F)cc1 [PP0435] ([NMeL]I[NMeA][Aze][NPrPhe(4-CF3)][Sar][hPhe(3-Cl-4-CF3)]P[Ac4c][NMeGly(cPent)][NMeD]-NMe2; lactam N-11) | C (A compound having a KD ratio of 0.1 or more and less than 3 is denoted as C) | C (A compound having a KD ratio of 0.1 or more and less than 3 is denoted as C)
3 | CCCN1C(=O)[C@@H]2CCN2C(=O)[C@H](C)N(C)C(=O)[C@H]([C@@H](C)CC)NC(=O)[C@H](CC(C)C)N(C)C(=O)C[C@@H](C(=O)N(C)C)N(C)C(=O)[C@H](C2CCCC2)N(C)C(=O)C2(CCCC2)NC(=O)[C@@H]2CC(F)(F)CN2C(=O)[C@H](CCc2ccc(C(F)(F)F)c(Cl)c2)NC(=O)CN(C)C(=O)[C@@H]1Cc1ccc(C(F)(F)F)cc1 [PP0436] ([NMeL]I[NMeA][Aze][NPrPhe(4-CF3)][Sar][hPhe(3-Cl-4-CF3)][Pro(4,4-F2)][Ac5c][NMeGly(cPent)][NMeD]-NMe2; lactam N-11) | C (A compound having a KD ratio of 0.1 or more and less than 3 is denoted as C) | C (A compound having a KD ratio of 0.1 or more and less than 3 is denoted as C)
4 | CCCN1C(=O)[C@@H]2CCN2C(=O)[C@H](C)N(C)C(=O)[C@H]([C@@H](C)CC)NC(=O)[C@H](CC(C)C)N(C)C(=O)C[C@@H](C(=O)N(C)C)N(C)C(=O)[C@H](C2CCCC2)N(C)C(=O)C2(CCC2)NC(=O)[C@@H]2CC(F)(F)CN2C(=O)[C@H](CCc2ccc(C(F)(F)F)c(Cl)c2)NC(=O)CN(C)C(=O)[C@@H]1Cc1ccc(C(F)(F)F)cc1 [PP0437] ([NMeL]I[NMeA][Aze][NPrPhe(4-CF3)][Sar][hPhe(3-Cl-4-CF3)][Pro(4,4-F2)][Ac4c][NMeGly(cPent)][NMeD]-NMe2; lactam N-11) | C (A compound having a KD ratio of 0.1 or more and less than 3 is denoted as C) | B (a compound having 3 or more and less than 10 is denoted as B)
5 | CCCN1C(=O)[C@@H]2CCN2C(=O)[C@H](C)N(C)C(=O)[C@H]([C@@H](C)CC)NC(=O)[C@H](CC(C)C)N(C)C(=O)C[C@@H](C(=O)N(C)C)N(C)C(=O)[C@H](C2CCCC2)N(C)C(=O)C2(CCCC2)NC(=O)[C@@H]2C[C@@H](OCC)CN2C(=O)[C@H](CCc2ccc(C(F)(F)F)c(Cl)c2)NC(=O)CN(C)C(=O)[C@@H]1Cc1ccc(C(F)(F)F)cc1 [PP0438] ([NMeL]I[NMeA][Aze][NPrPhe(4-CF3)][Sar][hPhe(3-Cl-4-CF3)][Hyp](Et)[Ac5c][NMeGly(cPent)][NMeD]-NMe2; lactam N-11) | C (A compound having a KD ratio of 0.1 or more and less than 3 is denoted as C) | C (A compound having a KD ratio of 0.1 or more and less than 3 is denoted as C)
6 | CCCN1C(=O)[C@@H]2CCN2C(=O)CN(C)C(=O)[C@H]([C@@H](C)CC)NC(=O)[C@H](CC(C)C)N(C)C(=O)C[C@@H](C(=O)N(C)C)N(C)C(=O)[C@H](C2CCCC2)N(C)C(=O)C2(CCCC2)NC(=O)[C@@H]2CCCN2C(=O)[C@H](CCc2ccc(C(F)(F)F)c(Cl)c2)NC(=O)CN(C)C(=O)[C@@H]1Cc1ccc(C(F)(F)F)cc1 [PP0440] ([NMeL]I[Sar][Aze][NPrPhe(4-CF3)][Sar][hPhe(3-Cl-4-CF3)]P[Ac5c][NMeGly(cPent)][NMeD]-NMe2; lactam N-11) | C (A compound having a KD ratio of 0.1 or more and less than 3 is denoted as C) | B (a compound having 3 or more and less than 10 is denoted as B)
7 | CCCN1C(=O)[C@@H]2CCN2C(=O)CN(C)C(=O)[C@H]([C@@H](C)CC)NC(=O)[C@H](CC(C)C)N(C)C(=O)C[C@@H](C(=O)N(C)C)N(C)C(=O)[C@H](C2CCCC2)N(C)C(=O)C2(CCC2)NC(=O)[C@@H]2CCCN2C(=O)[C@H](CCc2ccc(C(F)(F)F)c(Cl)c2)NC(=O)CN(C)C(=O)[C@@H]1Cc1ccc(C(F)(F)F)cc1 [PP0441] ([NMeL]I[Sar][Aze][NPrPhe(4-CF3)][Sar][hPhe(3-Cl-4-CF3)]P[Ac4c][NMeGly(cPent)][NMeD]-NMe2; lactam N-11) | C (A compound having a KD ratio of 0.1 or more and less than 3 is denoted as C) | C (A compound having a KD ratio of 0.1 or more and less than 3 is denoted as C)
8 | CCCN1C(=O)[C@@H]2CCN2C(=O)CN(C)C(=O)[C@H]([C@@H](C)CC)NC(=O)[C@H](CC(C)C)N(C)C(=O)C[C@@H](C(=O)N(C)C)N(C)C(=O)[C@H](C2CCCC2)N(C)C(=O)C2(CCCC2)NC(=O)[C@@H]2CC(F)(F)CN2C(=O)[C@H](CCc2ccc(C(F)(F)F)c(Cl)c2)NC(=O)CN(C)C(=O)[C@@H]1Cc1ccc(C(F)(F)F)cc1 [PP0442] ([NMeL]I[Sar][Aze][NPrPhe(4-CF3)][Sar][hPhe(3-Cl-4-CF3)][Pro(4,4-F2)][Ac5c][NMeGly(cPent)][NMeD]-NMe2; lactam N-11) | C (A compound having a KD ratio of 0.1 or more and less than 3 is denoted as C) | C (A compound having a KD ratio of 0.1 or more and less than 3 is denoted as C)
9 | CCCN1C(=O)[C@@H]2CCN2C(=O)CN(C)C(=O)[C@H]([C@@H](C)CC)NC(=O)[C@H](CC(C)C)N(C)C(=O)C[C@@H](C(=O)N(C)C)N(C)C(=O)[C@H](C2CCCC2)N(C)C(=O)C2(CCC2)NC(=O)[C@@H]2CC(F)(F)CN2C(=O)[C@H](CCc2ccc(C(F)(F)F)c(Cl)c2)NC(=O)CN(C)C(=O)[C@@H]1Cc1ccc(C(F)(F)F)cc1 [PP0443] ([NMeL]I[Sar][Aze][NPrPhe(4-CF3)][Sar][hPhe(3-Cl-4-CF3)][Pro(4,4-F2)][Ac4c][NMeGly(cPent)][NMeD]-NMe2; lactam N-11) | C (A compound having a KD ratio of 0.1 or more and less than 3 is denoted as C) | C (A compound having a KD ratio of 0.1 or more and less than 3 is denoted as C)
10 | CCCN1C(=O)[C@@H]2CCN2C(=O)CN(C)C(=O)[C@H]([C@@H](C)CC)NC(=O)[C@H](CC(C)C)N(C)C(=O)C[C@@H](C(=O)N(C)C)N(C)C(=O)[C@H](C2CCCC2)N(C)C(=O)C2(CCCC2)NC(=O)[C@@H]2C[C@@H](OCC)CN2C(=O)[C@H](CCc2ccc(C(F)(F)F)c(Cl)c2)NC(=O)CN(C)C(=O)[C@@H]1Cc1ccc(C(F)(F)F)cc1 [PP0444] ([NMeL]I[Sar][Aze][NPrPhe(4-CF3)][Sar][hPhe(3-Cl-4-CF3)][Hyp](Et)[Ac5c][NMeGly(cPent)][NMeD]-NMe2; lactam N-11) | C (A compound having a KD ratio of 0.1 or more and less than 3 is denoted as C) | C (A compound having a KD ratio of 0.1 or more and less than 3 is denoted as C)
11 | CCCN1C(=O)[C@@H]2CCN2C(=O)CN(C)C(=O)[C@H]([C@@H](C)CC)NC(=O)[C@H](CC(C)C)N(C)C(=O)C[C@@H](C(=O)N(C)C)N(C)C(=O)[C@H](C2CCCC2)N(C)C(=O)C2(CCC2)NC(=O)[C@@H]2C[C@@H](OCC)CN2C(=O)[C@H](CCc2ccc(C(F)(F)F)c(Cl)c2)NC(=O)CN(C)C(=O)[C@@H]1Cc1ccc(C(F)(F)F)cc1 [PP0445] ([NMeL]I[Sar][Aze][NPrPhe(4-CF3)][Sar][hPhe(3-Cl-4-CF3)][Hyp](Et)[Ac4c][NMeGly(cPent)][NMeD]-NMe2; lactam N-11) | C (A compound having a KD ratio of 0.1 or more and less than 3 is denoted as C) | C (A compound having a KD ratio of 0.1 or more and less than 3 is denoted as C)
12 | CCCN1C(=O)CN(C)C(=O)CN(C)C(=O)[C@H]([C@@H](C)CC)NC(=O)[C@H](CC(C)C)N(C)C(=O)C[C@@H](C(=O)N2CCOCC2)N(C)C(=O)[C@H](C2CCCC2)N(C)C(=O)C2(CCCC2)NC(=O)[C@@H]2CC(C)(C)CN2C(=O)[C@H](CCc2ccc(C(F)(F)F)c(Cl)c2)NC(=O)CN(C)C(=O)[C@@H]1Cc1ccc(C(F)(F)F)cc1 [PP0446] ([NMeL]I[Sar][Sar][NPrPhe(4-CF3)][Sar][hPhe(3-Cl-4-CF3)][Pro(4,4-Me2)][Ac5c][NMeGly(cPent)][NMeD]-Morpholide; lactam N-11) | B (a compound having 3 or more and less than 10 is denoted as B) | C (A compound having a KD ratio of 0.1 or more and less than 3 is denoted as C)

— patent US20250230193A1, “CYCLIC COMPOUND HAVING SELECTIVE KRAS INHIBITORY EFFECT ON HRAS AND NRAS” (CHUGAI SEIYAKU KABUSHIKI KAISHA, priority 2022, published 2025)
